Experimental data as given in ChEMBL document CHEMBL1201862, “PubChem BioAssay data set” (2004).
Calls of active or inactive are those of the source.

Assays:
[1] = biological target: Mitogen-activated protein kinase 10 (Homo sapiens, UniProt P53779); experiment: Dose response biochemical screening assay for inhibitors of c-Jun N-Terminal Kinase 3 (JNK3). [Related pubchem assays: 746 ]
[2] = biological target: T1, Rac GTPase-activating protein 1 (Homo sapiens, UniProt Q9H0H5); experiment: MgcRacGAP GTPase-activating activity inhibitors, confirmation, biochemical, ADP Hunter fluorescence, primary and confirmatory (AID 624330); type: functional
T1 sequence (Q9H0H5 whole entry): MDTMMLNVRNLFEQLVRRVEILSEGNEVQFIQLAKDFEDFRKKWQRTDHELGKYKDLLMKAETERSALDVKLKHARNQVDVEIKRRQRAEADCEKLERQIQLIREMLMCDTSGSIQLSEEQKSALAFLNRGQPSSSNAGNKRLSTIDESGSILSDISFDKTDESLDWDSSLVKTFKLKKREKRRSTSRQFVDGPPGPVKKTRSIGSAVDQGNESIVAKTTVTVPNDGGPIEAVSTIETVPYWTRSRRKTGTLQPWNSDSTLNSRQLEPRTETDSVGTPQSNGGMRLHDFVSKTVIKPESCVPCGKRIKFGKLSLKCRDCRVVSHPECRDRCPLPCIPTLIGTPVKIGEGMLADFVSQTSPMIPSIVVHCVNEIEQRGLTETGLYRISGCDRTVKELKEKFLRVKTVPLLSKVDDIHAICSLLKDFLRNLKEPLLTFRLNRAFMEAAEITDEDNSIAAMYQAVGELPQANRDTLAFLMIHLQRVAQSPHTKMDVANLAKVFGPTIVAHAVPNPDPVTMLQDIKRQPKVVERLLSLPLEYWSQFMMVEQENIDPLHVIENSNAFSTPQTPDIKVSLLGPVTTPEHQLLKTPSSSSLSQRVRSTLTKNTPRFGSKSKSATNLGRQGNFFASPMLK

[3] = HeLa cell cytotoxicity, dose response, cytotoxicity control for MgcRacGAP inhibitor project (AID 624300); type: functional
[4] = biological target: Heat shock protein HSP 90-alpha (Homo sapiens, UniProt P07900); experiment: Luminescence-based dose response biochemical high throughput screening assay for inhibitors of the Heat Shock Protein 90 (HSP90). [Related pubchem assays: 1831 (Summary AID.), 1846 (Confirmation screen.), 1789 (Primary screen.)]
[5] = HEK293T cytotoxicity, dose response, cytotoxicity control for miR-122 modulator project, cell-based, inhibitor set, cherry-pick, set 2 (AID 720697); type: functional
Major prion protein = Major prion protein (Homo sapiens, UniProt P04156); type: functional, cell-based
[6] = biological target: Disintegrin and metalloproteinase domain-containing protein 17 (Homo sapiens, UniProt P78536); experiment: exosite inhibitors of ADAM17, dose response, biochemical (AID 743260)
[7] = cytotoxicity toward NIH3T3 fibroblasts, dose response, counter-screen, cell-based, ATP luminescence, mouse fibroblasts (AID 2010); type: functional;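 further: cells exposed to compound for about 90 hours before reading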
[8] = ADAM10 protease inhibitors, dose response, selectivity assay for ADAM17 exosite inhibitor project, biochemical, FRET peptide substrate, recombinant human ADAM10 (AID 743259);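 further: ADAM10 enzyme cleaving a FRET peptide substrate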
[9] = inhibitors of intracellular T. cruzi replication, confirmation, NIH3T3 host cells, beta-gal luminescence (AID 2044); type: functional, cell-based;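 further: intracellular parasites grown in NIH/3T3 mouse fibroblasts as host cells; luminescent beta-galactosidase reporter signal from transgenic T. cruzi replicating inside host cells; inhibitors lower the luminescence signal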
Estrogen receptor beta = Estrogen receptor beta (Homo sapiens, UniProt Q92731);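 further: recombinant ER-beta bound to coactivator SRC1 peptide in presence of estradiol agonist; inhibitors block coactivator peptide binding and lower the FRET signal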
[10] = biological target: T2, Mannose-6-phosphate isomerase (Homo sapiens, UniProt P34949); experiment: human PMI inhibitors, high substrate, primary screen, biochemical, fluorescence intensity, high mannose 6-phosphate (AID 1220)
T2 sequence (P34949 whole entry): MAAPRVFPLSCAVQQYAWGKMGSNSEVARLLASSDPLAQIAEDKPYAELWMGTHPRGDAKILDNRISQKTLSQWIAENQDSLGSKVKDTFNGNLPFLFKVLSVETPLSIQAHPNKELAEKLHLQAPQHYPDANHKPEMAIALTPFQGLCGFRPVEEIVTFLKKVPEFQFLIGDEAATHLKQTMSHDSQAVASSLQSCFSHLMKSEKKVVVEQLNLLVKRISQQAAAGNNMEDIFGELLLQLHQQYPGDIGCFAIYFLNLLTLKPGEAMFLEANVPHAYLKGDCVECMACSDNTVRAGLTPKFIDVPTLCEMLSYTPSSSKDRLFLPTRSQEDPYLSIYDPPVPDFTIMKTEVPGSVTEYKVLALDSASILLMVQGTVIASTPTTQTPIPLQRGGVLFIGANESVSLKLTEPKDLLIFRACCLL

[11] = biological target: T3, Polyadenylate-binding protein 1 (Homo sapiens, UniProt P11940); experiment: PABP1 MLLE–PAM2 interaction inhibitors, dose response, miRNA deadenylation inhibitor project, biochemical, fluorescence polarization, Cy5-PAM2 peptide, secondary (AID 602260); type: functional; settings: read-out: IC50_Mean
[12] = biological target: DNA dC->dU-editing enzyme APOBEC-3G (Homo sapiens, UniProt Q9HC16); experiment: Dose Response confirmation of small molecule APOBEC3G DNA Deaminase Inhibitors via a fluorescence-based single-stranded DNA deaminase assay. [Related pubchem assays (depositor defined):AID493012, AID493028]; type: functional
[13] = biological target: T3, Polyadenylate-binding protein 1; experiment: PABP1 MLLE–PAM2 binding inhibitor potency, dose response, biochemical, fluorescence polarization, FITC-PAM2 peptide (AID 602259); type: functional; settings: read-out: IC50_Mean
[14] = biological target: DNA dC->dU-editing enzyme APOBEC-3A (Homo sapiens, UniProt P31941); experiment: APOBEC3A DNA deaminase inhibitors, dose response, biochemical (AID 504722); type: functional
[15] = cytotoxicity in OVCAR8 ovarian cancer cells, dose response, PAX8 project, cell-based, plate reader, dry powder samples (AID 743197); type: functional; settings: OVCAR-8
Paired box protein Pax-8 = Paired box protein Pax-8 (Homo sapiens, UniProt Q06710); experiment: inhibitors of PAX8-driven TPO luciferase reporter, dose response, RMG-I cells, cherry-pick (AID 687027); type: functional, cell-based;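 further: luciferase reporter driven by Pax8 target thyroperoxidase promoter measured by SteadyGlo luminescence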
[16] = biological target: T2, Mannose-6-phosphate isomerase; experiment: inhibitors of human PMI, primary screen, biochemical, fluorescence intensity, coupled assay (AID 1209)
[17] = inhibitors of HIV Env-driven cell fusion, dose response, cherry-pick (AID 652057); type: functional, cell-based
[18] = inhibitors of clade B AD8 Env fusion, dose response, cell-based, cherry-pick (AID 652062); type: functional;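 further: luciferase signal from cell-cell fusion driven by HIV-1 clade B AD8 Env; potency is for inhibitors of fusion seen as a drop in luminescence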
Mu-type opioid receptor = Mu-type opioid receptor (Homo sapiens, UniProt P35372); type: functional, cell-based;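 further: U2OS cells with beta-arrestin recruitment to OPRM1 by beta-gal complementation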
[19] = biological target: 5-hydroxytryptamine receptor 2A (Mus musculus, UniProt P35363); type: functional, cell-based;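 further: CHO-K1 cells with tagged receptor and beta-arrestin; agonist potency measured as compound-induced activation of the receptor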

## COc1cc(CC(=O)Nc2ncc(C)s2)cc(OC)c1OC
[1]
  IC50: 13.3 µM (not active)

## CCN(c1ccccc1)S(=O)(=O)c1ccc(N2CCN(c3ccc(O)cc3)CC2)nc1
[2]
  IC50: 40.5 µM (active)
[3]
  CC50: 100 µM (active)

## CCOc1ccc(-c2nc(CN(Cc3ccccc3)C[C@@H]3CCC(=O)N3)c(C)o2)cc1
[4]
  IC50: 3.05 µM (active)

## C[C@H](NC(=O)C[C@@H]1CC[C@H]2[C@H](COc3ccc(NS(=O)(=O)c4ccc(Cl)cc4)cc3C(=O)N2C)O1)c1ccccc1
[5]
  AC50: 9.74 µM (active)

## CCOC(=O)NC(=O)CSc1cc(C)c2cc(C)cc(C)c2n1
Major prion protein
  IC50: 9.4 µM (active)
cells
  IC50: > 138 µM (inactive)

## Cn1nccc1C(=O)Nc1ccc(OC(=O)c2ccnn2C)cc1
[2]
  IC50: 16.7 µM (active)
[3]
  CC50: 100 µM (active)

## COC(=O)CSc1nc(-c2ccccc2)nc2ccc(F)cc12
Major prion protein
  IC50: 2.56 µM (active)
cells
  IC50: > 138 µM (inactive)

## Cc1ccc(S(=O)(=O)N(CCCO)CC(O)CON=C2c3ccccc3-c3ccccc32)cc1 (stereo not given)
[6]
  IC50: > 69.5 µM (inactive)
[7]
  EC50: > 60 µM (not active)
[8]
  IC50: > 7.72 µM (active)
[9]
  EC50: 1.6 µM (active)

## c1ccc2c(c1)nc(N1CCOCC1)c1c3ccccc3[nH]c21
[1]
  IC50: 30.4 µM (not active)

## COc1ccc(NC(=O)C2(C)Cc3c(-c4cccc(C(F)(F)F)c4)ccnc3O2)cn1 (stereo not given)
[6]
  IC50: > 69.5 µM (inactive)
[8]
  IC50: 32.4 µM (inactive)

## O=S(=O)(Nc1ncnc2sc3c(c12)CCC3)c1ccc2ccccc2c1
Estrogen receptor beta
  IC50: 25 µM (active)

## Cc1ccc2[nH]c3c(c2c1)CCc1c[nH]nc1-3
[10]
  IC50: 43.4 µM (active)
[1]
  IC50: 16.4 µM (not active)

## CCCn1c(N)c(C(=O)CSc2nncs2)c(=O)[nH]c1=O
Major prion protein
  IC50: 5.88 µM (active)
cells
  IC50: > 138 µM (inactive)

## CCn1c(O)nc(CS(=O)(=O)c2ccccc2)c1C
[11]
  IC50: > 66 µM (inactive)
[10]
  IC50: 1.23 µM (active)
[12]
  IC50: 6.9 µM (active)
[13]
  IC50: > 66 µM (inactive)
[14]
  IC50: > 100 µM (inactive)

## C[C@@H]1CCCCO[C@@H](CN(C)Cc2ccncc2)[C@H](C)CN([C@H](C)CO)C(=O)c2cc(NC(=O)Nc3ccc(C(F)(F)F)cc3)ccc2O1
[15]
  AC50: 53.8 µM (active)
Paired box protein Pax-8
  AC50: 6.48 µM (active)

## CC(C)(C)N1C(=O)Cc2c1nc(N)c1c(N)nc(N3CCCCC3CO)c(C#N)c21 (stereo not given)
[10]
  IC50: > 50 µM (not active)
[16]
  IC50: > 50 µM (not active)

## Cc1ccccc1S(=O)(=O)N1C[C@H](O)COC[C@H]2O[C@@H](CC(=O)NCc3ccccc3Cl)CC[C@@H]21
[17]
  AC50: 1.12 µM (active)
[18]
  AC50: 6.43 µM (active)

## c1ccc(N2CCN(Cc3ccc4c(c3)OCO4)CC2)nc1
Mu-type opioid receptor
  EC50: 92.5 µM (inactive)
[19]
  EC50: 22.8 nM (active)

## CCOc1cccc(OCCOc2ccc(C(=O)c3ccccc3)cc2)c1
[6]
  IC50: > 69.5 µM (inactive)
[8]
  IC50: > 69.5 µM (inactive)

## C[C@@H]1CCCCO[C@@H](CN(C)Cc2ccc(Cl)c(Cl)c2)[C@H](C)CN([C@@H](C)CO)C(=O)c2cc(NS(=O)(=O)c3ccc(Cl)cc3)ccc2O1
[15]
  AC50: 44 µM (active)
Paired box protein Pax-8
  AC50: 7 µM (active)
